Biological target: T1, human T-type channel alpha-1H (CaV 3.2) (Homo sapiens, UniProt O95180)
T1 construct: expressed in transfected cells; host or cells: HEK 293
Test: Ca2+ Influx Assay (cell-based fluorescent, FDSS)
Conditions: HEK 293 cells expressing human CaV 3.2
Method in brief: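 HEK293 cells stably expressing human CaV3.2, loaded with Fluo-4-AM 1 h at 37 °C. Compound added 4.5 min before potassium ionophore, then high-K+ depolarization with fluorescence monitored on FDSS. IC50 from 7-point dose-response, duplicate wells.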

T1 sequence (O95180 whole entry): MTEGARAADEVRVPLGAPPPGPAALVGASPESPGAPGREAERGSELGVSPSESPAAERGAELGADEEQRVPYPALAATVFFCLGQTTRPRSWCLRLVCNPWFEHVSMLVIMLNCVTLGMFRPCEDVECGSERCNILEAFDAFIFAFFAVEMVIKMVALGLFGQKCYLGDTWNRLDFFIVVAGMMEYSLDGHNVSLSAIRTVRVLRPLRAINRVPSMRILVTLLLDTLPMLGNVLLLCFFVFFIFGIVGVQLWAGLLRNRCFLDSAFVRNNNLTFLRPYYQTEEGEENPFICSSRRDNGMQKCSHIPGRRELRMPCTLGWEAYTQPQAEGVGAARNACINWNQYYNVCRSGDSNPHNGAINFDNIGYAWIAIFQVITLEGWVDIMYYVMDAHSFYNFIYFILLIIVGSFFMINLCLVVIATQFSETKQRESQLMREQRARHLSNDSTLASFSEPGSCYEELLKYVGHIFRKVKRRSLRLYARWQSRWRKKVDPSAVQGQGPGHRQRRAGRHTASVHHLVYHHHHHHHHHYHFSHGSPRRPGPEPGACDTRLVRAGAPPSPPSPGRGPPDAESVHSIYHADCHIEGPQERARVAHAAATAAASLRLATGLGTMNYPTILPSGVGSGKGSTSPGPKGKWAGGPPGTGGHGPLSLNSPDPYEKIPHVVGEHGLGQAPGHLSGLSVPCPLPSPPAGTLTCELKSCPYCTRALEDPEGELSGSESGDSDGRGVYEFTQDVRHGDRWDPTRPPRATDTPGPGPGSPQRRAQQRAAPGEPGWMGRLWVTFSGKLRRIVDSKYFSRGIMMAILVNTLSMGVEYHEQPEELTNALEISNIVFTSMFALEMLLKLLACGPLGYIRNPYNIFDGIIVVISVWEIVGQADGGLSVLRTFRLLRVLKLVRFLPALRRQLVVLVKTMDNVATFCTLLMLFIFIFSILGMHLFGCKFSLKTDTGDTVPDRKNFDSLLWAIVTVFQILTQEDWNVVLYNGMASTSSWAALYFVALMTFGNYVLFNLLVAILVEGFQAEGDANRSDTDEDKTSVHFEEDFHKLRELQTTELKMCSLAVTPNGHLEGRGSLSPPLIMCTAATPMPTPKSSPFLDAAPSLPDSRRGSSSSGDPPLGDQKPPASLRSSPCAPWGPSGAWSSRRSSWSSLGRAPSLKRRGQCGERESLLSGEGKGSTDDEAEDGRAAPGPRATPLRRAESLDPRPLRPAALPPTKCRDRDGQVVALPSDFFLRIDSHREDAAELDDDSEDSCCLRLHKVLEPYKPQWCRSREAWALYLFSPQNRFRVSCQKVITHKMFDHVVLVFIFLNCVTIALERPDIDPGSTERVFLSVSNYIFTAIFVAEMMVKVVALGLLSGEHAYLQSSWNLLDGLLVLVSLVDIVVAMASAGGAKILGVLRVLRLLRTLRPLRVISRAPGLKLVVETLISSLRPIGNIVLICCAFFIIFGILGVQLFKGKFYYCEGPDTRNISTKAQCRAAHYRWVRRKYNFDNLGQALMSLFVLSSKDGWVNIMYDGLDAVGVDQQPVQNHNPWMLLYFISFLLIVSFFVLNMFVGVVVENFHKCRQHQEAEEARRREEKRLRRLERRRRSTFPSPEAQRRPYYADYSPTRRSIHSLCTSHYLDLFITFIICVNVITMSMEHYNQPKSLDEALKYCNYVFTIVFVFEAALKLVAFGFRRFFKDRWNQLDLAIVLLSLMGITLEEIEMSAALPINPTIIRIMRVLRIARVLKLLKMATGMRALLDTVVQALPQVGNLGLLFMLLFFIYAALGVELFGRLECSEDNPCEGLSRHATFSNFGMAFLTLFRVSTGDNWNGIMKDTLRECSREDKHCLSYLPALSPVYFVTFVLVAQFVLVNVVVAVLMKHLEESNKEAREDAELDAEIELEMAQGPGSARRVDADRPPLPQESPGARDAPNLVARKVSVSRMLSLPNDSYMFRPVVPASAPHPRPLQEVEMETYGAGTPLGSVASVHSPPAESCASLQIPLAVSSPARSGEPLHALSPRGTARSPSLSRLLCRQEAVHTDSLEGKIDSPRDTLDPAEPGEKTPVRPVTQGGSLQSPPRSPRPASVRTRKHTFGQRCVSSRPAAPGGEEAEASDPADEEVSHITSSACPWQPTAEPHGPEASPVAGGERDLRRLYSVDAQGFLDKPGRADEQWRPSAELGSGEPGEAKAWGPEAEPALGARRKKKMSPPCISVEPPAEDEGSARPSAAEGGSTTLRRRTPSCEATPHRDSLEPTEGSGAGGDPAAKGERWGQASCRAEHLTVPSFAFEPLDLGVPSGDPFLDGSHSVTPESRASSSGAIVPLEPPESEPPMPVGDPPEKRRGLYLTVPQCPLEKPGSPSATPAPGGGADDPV

Structure (SMILES) | IC50
C[C@@H](NC(=O)[C@H]1C[C@@H]1c1ccccc1)c1ccc(OCC(F)(F)F)nc1 (relative stereo) [Example 284, (1S*,2S*)-2-phenyl-N-((R)-1-(6-(2,2,2-trifluoroethoxy)pyridin-3-yl)ethyl)cyclopropanecarboxamide] | ≤ 300 nM
C[C@@H](NC(=O)C1CC1c1ccc2ccn(CC3(C)COC3)c2c1)c1ccc(OCC(F)(F)F)nc1 (stereo in doubt) [Example 213, trans-2-(1-((3-methyloxetan-3-yl)methyl)-1H-indol-6-yl)-N-((R)-1-(6-(2,2,2-trifluoro-ethoxy)pyridin-3-yl)ethyl)cyclopropanecarboxamide] | ≤ 300 nM
C[C@@H](NC(=O)[C@@H]1C[C@H]1c1cccc2cc[nH]c12)c1cnc(OCC(F)(F)F)cn1 (relative stereo) [Example 323, (1R*,2R*)-2-(1H-indol-7-yl)-N-((R)-1-(5-(2,2,2-trifluoroethoxy)pyrazin-2-yl)ethyl)cyclopropanecarboxamide] | ≤ 300 nM
Cc1cc(OCC(F)(F)F)cnc1[C@@H](C)NC(=O)CCc1c[nH]c2ccccc12 [Example 104, (R)-3-(1H-indol-3-yl)-N-(1-(3-methyl-5-(2,2,2-trifluoroethoxy)pyridin-2-yl)ethyl)propanamide] | ≤ 300 nM
C[C@H](NC(=O)[C@@H]1C[C@H]1c1cccc(OCc2ccccc2)c1)c1ccc(OCC(F)(F)F)cn1 (stereo in doubt) [Example 346, (1R*,2R*)-2-(3-(benzyloxy)phenyl)-N-((S)-1-(5-(2,2,2-trifluoroethoxy)pyridin-2-yl)ethyl)cyclopropanecarboxamide] | ≤ 300 nM
C[C@@H](NC(=O)[C@@H]1C[C@H]1c1ccc2cc[nH]c2c1)c1ccc(OCC(F)(F)F)cn1 (relative stereo) [Example 204, (1R*,2R*)-2-(1H-indol-6-yl)-N-((R)-1-(5-(2,2,2-trifluoroethoxy)pyridin-2-yl)ethyl)cyclopropanecarboxamide] | ≤ 300 nM
C[C@@H](NC(=O)[C@H]1C[C@@H]1c1cccc(OCc2ccccn2)c1)c1ccc(OCC(F)(F)F)cn1 (relative stereo) [Example 306, (1S*,2S*)-2-(3-(pyridin-2-ylmethoxy)phenyl)-N-((R)-1-(5-(2,2,2-trifluoroethoxy)pyridin-2-yl)ethyl)cyclopropanecarboxamide] | ≤ 300 nM
C[C@@H](NC(=O)C1CC1COc1ccc(Cl)cc1)c1ccc(OCC(F)(F)F)cn1 (stereo in doubt) [Example 169, trans-2-((4-chlorophenoxy)methyl)-N-((R)-1-(5-(2,2,2-trifluoroethoxy)pyridin-2-yl)ethyl)cyclopropanecarboxamide] | ≤ 300 nM
COc1ccc([C@H]2C[C@@H]2C(=O)N[C@H](C)c2ccc(OCC(F)(F)F)cn2)c(F)c1 (relative stereo) [Example 248, (1S*,2S*)-2-(2-fluoro-4-methoxyphenyl)-N-((R)-1-(5-(2,2,2-trifluoroethoxy)pyridin-2-yl)ethyl)cyclopropanecarboxamide] | ≤ 300 nM
C[C@@H](NC(=O)C1CC1c1cc(F)cc(F)c1)c1ccc(OCC2CC2)cn1 (stereo partly drawn) [Example 193, trans-N-((R)-1-(5-(cyclopropylmethoxy)pyridin-2-yl)ethyl)-2-(3,5-difluorophenyl) cyclopropanecarboxamide] | ≤ 300 nM
C[C@@H](NC(=O)[C@H]1C[C@@H]1c1ccc(F)cc1Cl)c1ccc(OCC(F)(F)F)cn1 (relative stereo) [Example 246, (1S*,2S*)-2-(2-chloro-4-fluorophenyl)-N-((R)-1-(5-(2,2,2-trifluoroethoxy)pyridin-2-yl)ethyl)cyclopropanecarboxamide] | ≤ 300 nM
C[C@@H](NC(=O)[C@H]1C[C@@H]1c1c(F)cc(F)cc1F)c1ccc(OCC(F)(F)F)cn1 (relative stereo) [Example 250, (1S*,2S*)-N-((R)-1-(5-(2,2,2-trifluoroethoxy)pyridin-2-yl)ethyl)-2-(2,4,6-trifluorophenyl) cyclopropanecarboxamide] | ≤ 300 nM
COc1ccc([C@@H]2C[C@H]2C(=O)N[C@H](C)c2cnc(OCC(F)(F)F)cn2)cc1C (relative stereo) [Example 310, (1R*,2R*)-2-(4-methoxy-3-methylphenyl)-N-((R)-1-(5-(2,2,2-trifluoroethoxy)pyrazin-2-yl)ethyl)cyclopropanecarboxamide] | ≤ 300 nM
Cc1cccc([C@H]2C[C@@H]2C(=O)N[C@H](C)c2cnc(OCC(F)(F)F)cn2)c1 (relative stereo) [Example 273, (1S*,2S*)-2-m-tolyl-N-((R)-1-(5-(2,2,2-trifluoroethoxy)pyrazin-2-yl)ethyl)cyclopropanecarboxamide] | ≤ 300 nM
C[C@@H](NC(=O)[C@H]1C[C@@H]1c1ccccc1)c1cnc(OCC(F)(F)F)cn1 (relative stereo) [Example 282, (1S*,2S*)-2-phenyl-N-((R)-1-(5-(2,2,2-trifluoroethoxy)pyrazin-2-yl)ethyl)cyclopropanecarboxamide] | ≤ 300 nM
C[C@@H](NC(=O)C1CC1c1ccc2cccnc2c1)c1ccc(OCC(F)(F)F)nc1 (stereo in doubt) [Example 206, trans-2-(quinolin-7-yl)-N-((R)-1-(6-(2,2,2-trifluoroethoxy)pyridin-3-yl)ethyl)cyclopropanecarboxamide] | ≤ 300 nM
C[C@@H](NC(=O)C1CC1c1cn(C)c2ccccc12)c1ccc(OCC(F)(F)F)cn1 (stereo in doubt) [Example 106, trans-2-(1-methyl-1H-indol-3-yl)-N-((R)-1-(5-(2,2,2-trifluoroethoxy)pyridin-2-yl)ethyl)cyclopropanecarboxamide] | ≤ 300 nM

Tested on: chronic pain
Test: not given
Conditions: in vivo; cited from earlier work

Structure (SMILES) | effect on chronic pain
CCN(CC)CC(=O)Nc1c(C)cccc1C [lidocaine] | effective to treat chronic pain

Tested on: rats
Test: not given
Conditions: rat, in vivo; cited from earlier work

Structure (SMILES) | effect on mechanical allodynic behavior
NC1=N[C@H](O)[C@H]2[C@H]3O[C@]4(O)O[C@@H]([C@@H](O)[C@@]2(N1)[C@@H]4O)[C@]3(O)CO [TTX, tetrodotoxin] | significantly reduces mechanical allodynic behavior
